The target of experiment [1] is Adrenergic receptor alpha.
In experiment [2] the target is Adrenergic receptor beta (Rattus norvegicus, UniProt P18090+P10608+P26255).
Experiment [3] addresses Adrenergic receptor beta (Homo sapiens, UniProt P08588+P07550+P13945).
Description: Evaluated for Beta adrenergic receptor agonistic property in isolated guinea pig atria

What is called IC50 is the concentration that inhibits the measured activity by half. `CC(C)NCC(O)c1ccc(O)c(O)c1` (racemic) [ISOPROTERENOL] showed an IC50 in experiment [1] of more than 100 µM.
For orientation: EC50 means the concentration giving half of the maximal effect. A lower EC50 goes with a more potent agent. Consider `CC(C)NCC(O)c1cc(O)c(O)cc1F` (stereo not given), for which the IC50 in experiment [2] amounted to 5.5 µM; in experiment [1] it was 80 µM. For the same molecule, in experiment [3], the EC50 is 30 µM.
In the same order, the values of `CC(C)NCC(O)c1ccc(O)c(O)c1F` (stereo not given) are 0.5 µM, 59 µM and 0.01 µM.
For `CC(C)NCC(O)c1cc(O)c(O)c(F)c1` (stereo not given), in that order: 0.6 µM, 55 µM and 0.02 µM.
